Measurements published in the supplement of paper PMC11061612.

Tests used:
[1] = tested on: RPMI-8226 (Plasma Cell Myeloma); test: combination Emax (second highest fraction inhibited in the dose matrix, 72 h); higher = more inhibition; extreme values may be limits of the assay
In short: (§1)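 Cell lines in DMEM/F12 or RPMI with 10% FBS were plated in 1536-well plates, held 24 hours at 37°C, 5% CO2, then given two-drug dose matrices for 72 hours (DMSO typically 0.2%). Viability was read by CellTiter-Glo 2.0 luminescence and scaled as inhibition from 0 (vehicle wells) to 1 (blank wells). Combination Emax is the second-highest inhibition in the matrix; Bliss excess is observed combination effect minus expected EA + EB − EA·EB, EA and EB being single-agent effects.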

[2] = tested on: SUP-B15 (B-Lymphoblastic Leukemia); test: as above
In short: as §1

Row | Compound | combination Emax [1] | combination Emax [2]
1 | CN(C)CCCOc1ccc(-c2ccc3ncc4c(c3c2)n(C2CCOCC2)c(=O)n4C)cn1 [AZD0156] + C=CCn1c(=O)c2cnc(Nc3ccc(N4CCN(C)CC4)cc3)nc2n1-c1cccc(C(C)(C)O)n1 [AZD1775] (first compound max 1 µM, partner max 1 µM) | 0.656 | 0.602
2 | CN(C)CCCOc1ccc(-c2ccc3ncc4c(c3c2)n(C2CCOCC2)c(=O)n4C)cn1 [AZD0156] + CCN(CCO)CCCOc1ccc2c(Nc3cc(CC(=O)Nc4cccc(F)c4)[nH]n3)ncnc2c1 [AZD2811] (first compound max 1 µM, 7x7, partner max 1 µM) | 0.556 | 0.896
3 | CN(C)CCCOc1ccc(-c2ccc3ncc4c(c3c2)n(C2CCOCC2)c(=O)n4C)cn1 [AZD0156] + C[C@@H]1COCCN1C2=NC(=NC(=C2)C3(CC3)[S@](=N)(=O)C)C4=C5C=CNC5=NC=C4 [AZD6738] (first compound max 1 µM, 7x7, partner max 10 µM) | 0.994 | 0.879
4 | C=CCn1c(=O)c2cnc(Nc3ccc(N4CCN(C)CC4)cc3)nc2n1-c1cccc(C(C)(C)O)n1 [AZD1775] + C[C@@H]1COCCN1C2=NC(=NC(=C2)C3(CC3)[S@](=N)(=O)C)C4=C5C=CNC5=NC=C4 [AZD6738] (first compound max 1 µM, partner max 10 µM) | 0.983 | 0.914
5 | C=CCn1c(=O)c2cnc(Nc3ccc(N4CCN(C)CC4)cc3)nc2n1-c1cccc(C(C)(C)O)n1 [AZD1775] + O=C(c1cc(Cc2n[nH]c(=O)c3ccccc23)ccc1F)N1CCN(C(=O)C2CC2)CC1 [Olaparib] (first compound max 1 µM, partner max 10 µM) | 0.502 | 0.973
6 | CCN(CCO)CCCOc1ccc2c(Nc3cc(CC(=O)Nc4cccc(F)c4)[nH]n3)ncnc2c1 [AZD2811] + C=CCn1c(=O)c2cnc(Nc3ccc(N4CCN(C)CC4)cc3)nc2n1-c1cccc(C(C)(C)O)n1 [AZD1775] (first compound max 1 µM, partner max 1 µM) | 0.562 | 0.966
7 | CCN(CCO)CCCOc1ccc2c(Nc3cc(CC(=O)Nc4cccc(F)c4)[nH]n3)ncnc2c1 [AZD2811] + C[C@@H]1COCCN1C2=NC(=NC(=C2)C3(CC3)[S@](=N)(=O)C)C4=C5C=CNC5=NC=C4 [AZD6738] (first compound max 1 µM, 7x7, partner max 10 µM) | 0.967 | 0.914
8 | CCN(CCO)CCCOc1ccc2c(Nc3cc(CC(=O)Nc4cccc(F)c4)[nH]n3)ncnc2c1 [AZD2811] + O=C(c1cc(Cc2n[nH]c(=O)c3ccccc23)ccc1F)N1CCN(C(=O)C2CC2)CC1 [Olaparib] (first compound max 1 µM, 7x7, partner max 10 µM) | 0.491 | 0.976
9 | CN(CCO)CC[C@H](CSc1ccccc1)Nc1ccc(S(=O)(=O)NC(=O)c2ccc(N3CCC([C@@H](O)c4ccccc4-c4ccc(Cl)cc4)CC3)cc2)cc1S(=O)(=O)C(F)(F)F [AZD4320] + C1CN(CCC1(C(=O)N[C@@H](CCO)C2=CC=C(C=C2)Cl)N)C3=NC=NC4=C3C=CN4 [Capivasertib] (first compound max 1 µM, 7x7, partner max 3 µM) | 0.925 | 1
10 | CN(CCO)CC[C@H](CSc1ccccc1)Nc1ccc(S(=O)(=O)NC(=O)c2ccc(N3CCC([C@@H](O)c4ccccc4-c4ccc(Cl)cc4)CC3)cc2)cc1S(=O)(=O)C(F)(F)F [AZD4320] + C=CCn1c(=O)c2cnc(Nc3ccc(N4CCN(C)CC4)cc3)nc2n1-c1cccc(C(C)(C)O)n1 [AZD1775] (first compound max 1 µM, partner max 1 µM) | 0.997 | 1
11 | CN(CCO)CC[C@H](CSc1ccccc1)Nc1ccc(S(=O)(=O)NC(=O)c2ccc(N3CCC([C@@H](O)c4ccccc4-c4ccc(Cl)cc4)CC3)cc2)cc1S(=O)(=O)C(F)(F)F [AZD4320] + CCN(CCO)CCCOc1ccc2c(Nc3cc(CC(=O)Nc4cccc(F)c4)[nH]n3)ncnc2c1 [AZD2811] (first compound max 1 µM, 7x7, partner max 1 µM) | 0.986 | 1
12 | CN(CCO)CC[C@H](CSc1ccccc1)Nc1ccc(S(=O)(=O)NC(=O)c2ccc(N3CCC([C@@H](O)c4ccccc4-c4ccc(Cl)cc4)CC3)cc2)cc1S(=O)(=O)C(F)(F)F [AZD4320] + CN(C)CCCOc1ccc(-c2ccc3ncc4c(c3c2)n(C2CCOCC2)c(=O)n4C)cn1 [AZD0156] (first compound max 1 µM, 7x7, partner max 1 µM) | 0.949 | 1
13 | CN(CCO)CC[C@H](CSc1ccccc1)Nc1ccc(S(=O)(=O)NC(=O)c2ccc(N3CCC([C@@H](O)c4ccccc4-c4ccc(Cl)cc4)CC3)cc2)cc1S(=O)(=O)C(F)(F)F [AZD4320] + C[C@@H]1COCCN1C2=NC(=NC(=C2)C3(CC3)[S@](=N)(=O)C)C4=C5C=CNC5=NC=C4 [AZD6738] (first compound max 1 µM, 7x7, partner max 10 µM) | 1 | 1
14 | CN(CCO)CC[C@H](CSc1ccccc1)Nc1ccc(S(=O)(=O)NC(=O)c2ccc(N3CCC([C@@H](O)c4ccccc4-c4ccc(Cl)cc4)CC3)cc2)cc1S(=O)(=O)C(F)(F)F [AZD4320] + C[C@@H](Nc1cc(F)cc(F)c1)c1cc(C(=O)N(C)C)cc2c(=O)cc(N3CCOCC3)oc12 [AZD8186] (first compound max 1 µM, 7x7, partner max 3 µM) | 0.968 | 1
15 | CN(CCO)CC[C@H](CSc1ccccc1)Nc1ccc(S(=O)(=O)NC(=O)c2ccc(N3CCC([C@@H](O)c4ccccc4-c4ccc(Cl)cc4)CC3)cc2)cc1S(=O)(=O)C(F)(F)F [AZD4320] + Cc1cc2ncnn2cc1Nc1ncc2c(n1)n(C1CCOCC1)c(=O)n2C [AZD7648] (first compound max 1 µM, 7x7, partner max 10 µM) | 0.965 | 1
16 | CN(CCO)CC[C@H](CSc1ccccc1)Nc1ccc(S(=O)(=O)NC(=O)c2ccc(N3CCC([C@@H](O)c4ccccc4-c4ccc(Cl)cc4)CC3)cc2)cc1S(=O)(=O)C(F)(F)F [AZD4320] + Cn1cnc2c(F)c(Nc3ccc(Br)cc3Cl)c(C(=O)NOCCO)cc21 [Selumetinib] (first compound max 1 µM, 7x7, partner max 3 µM) | 0.965 | 1
17 | COc1nnc2ccc(N3CCC(c4ccc(OCCN5CCN(C)C(=O)[C@H]5C)cc4)CC3)nn12 [AZD5153] + CN(CC[C@H](CSC1=CC=CC=C1)NC2=C(C=C(C=C2)S(=O)(=O)NC(=O)C3=CC=C(C=C3)N4CCC(CC4)[C@H](C5=CC=CC=C5C6=CC=C(C=C6)Cl)O)S(=O)(=O)C(F)(F)F)CCO [AZD4320] (first compound max 1 µM, 7x7, partner max 1 µM) | 0.996 | 1
18 | Cc1c2c(nn1C)CSCc1cc(n(C)n1)CSc1cc(c3ccccc3c1)OCCCc1c(C(=O)O)n(C)c3c-2c(Cl)ccc13 [AZD5991] + C1CN(CCC1(C(=O)N[C@@H](CCO)C2=CC=C(C=C2)Cl)N)C3=NC=NC4=C3C=CN4 [Capivasertib] (first compound max 1 µM, 7x7, partner max 3 µM) | 0.976 | 1
19 | Cc1c2c(nn1C)CSCc1cc(n(C)n1)CSc1cc(c3ccccc3c1)OCCCc1c(C(=O)O)n(C)c3c-2c(Cl)ccc13 [AZD5991] + C=CCn1c(=O)c2cnc(Nc3ccc(N4CCN(C)CC4)cc3)nc2n1-c1cccc(C(C)(C)O)n1 [AZD1775] (first compound max 1 µM, partner max 1 µM) | 0.984 | 1
20 | Cc1c2c(nn1C)CSCc1cc(n(C)n1)CSc1cc(c3ccccc3c1)OCCCc1c(C(=O)O)n(C)c3c-2c(Cl)ccc13 [AZD5991] + CC1(C)CCC(CN2CCN(c3ccc(C(=O)NS(=O)(=O)c4ccc(NCC5CCOCC5)c([N+](=O)[O-])c4)c(Oc4cnc5[nH]ccc5c4)c3)CC2)=C(c2ccc(Cl)cc2)C1 [Venetoclax] (first compound max 1 µM, 7x7, partner max 1 µM) | 1 | 1
21 | Cc1c2c(nn1C)CSCc1cc(n(C)n1)CSc1cc(c3ccccc3c1)OCCCc1c(C(=O)O)n(C)c3c-2c(Cl)ccc13 [AZD5991] + CCN(CCO)CCCOc1ccc2c(Nc3cc(CC(=O)Nc4cccc(F)c4)[nH]n3)ncnc2c1 [AZD2811] (first compound max 1 µM, 7x7, partner max 1 µM) | 0.965 | 1
22 | Cc1c2c(nn1C)CSCc1cc(n(C)n1)CSc1cc(c3ccccc3c1)OCCCc1c(C(=O)O)n(C)c3c-2c(Cl)ccc13 [AZD5991] + CN(C)CCCOc1ccc(-c2ccc3ncc4c(c3c2)n(C2CCOCC2)c(=O)n4C)cn1 [AZD0156] (first compound max 1 µM, 7x7, partner max 1 µM) | 0.963 | 1
23 | Cc1c2c(nn1C)CSCc1cc(n(C)n1)CSc1cc(c3ccccc3c1)OCCCc1c(C(=O)O)n(C)c3c-2c(Cl)ccc13 [AZD5991] + C[C@@H]1COCCN1C2=NC(=NC(=C2)C3(CC3)[S@](=N)(=O)C)C4=C5C=CNC5=NC=C4 [AZD6738] (first compound max 1 µM, 7x7, partner max 10 µM) | 1 | 1
24 | Cc1c2c(nn1C)CSCc1cc(n(C)n1)CSc1cc(c3ccccc3c1)OCCCc1c(C(=O)O)n(C)c3c-2c(Cl)ccc13 [AZD5991] + C[C@@H](Nc1cc(F)cc(F)c1)c1cc(C(=O)N(C)C)cc2c(=O)cc(N3CCOCC3)oc12 [AZD8186] (first compound max 1 µM, 7x7, partner max 3 µM) | 0.949 | 1
25 | Cc1c2c(nn1C)CSCc1cc(n(C)n1)CSc1cc(c3ccccc3c1)OCCCc1c(C(=O)O)n(C)c3c-2c(Cl)ccc13 [AZD5991] + Cc1cc2ncnn2cc1Nc1ncc2c(n1)n(C1CCOCC1)c(=O)n2C [AZD7648] (first compound max 1 µM, 7x7, partner max 10 µM) | 0.957 | 1
